“Also recorded” adds a separate entry of the source.

What all share (format): biochemical
Assay [1] concerns the target PTP-β (Homo sapiens, UniProt P23467). Nature of the assay: Colorimetric PTP-β assay using p-NPP as substrate. Particulars: 5 µM compound; 1 mM p-NPP as substrate.
Assay [2] addresses T1, Cdc25a (Homo sapiens, UniProt P30304).
T1 sequence (P30304 376-482 limits assumed): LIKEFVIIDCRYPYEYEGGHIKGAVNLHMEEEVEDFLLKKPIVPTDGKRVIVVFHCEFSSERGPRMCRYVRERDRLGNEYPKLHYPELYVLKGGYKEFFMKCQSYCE
Description: OMFP phosphatase assay, Cdc25a. Particulars: for Mode of inhibition of Cdc25a: Michaelis-Menten kinetics, varying inhibitor concentrations; for Reversibility of inhibition of Cdc25a: dilution method: pre-incubation at 4 times IC50, 10-fold dilution.

Assay [3] has as its target T2, Cdc25b (Homo sapiens, UniProt P30305).
T2 sequence (P30305 431-538 limits assumed): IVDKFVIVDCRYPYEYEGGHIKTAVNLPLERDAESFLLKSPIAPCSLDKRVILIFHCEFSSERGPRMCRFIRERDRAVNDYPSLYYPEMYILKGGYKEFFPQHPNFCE
Description: OMFP phosphatase assay, Cdc25b. Particulars: for Mode of inhibition of Cdc25b: Michaelis-Menten kinetics, varying inhibitor concentrations; for Reversibility of inhibition of Cdc25b: dilution method: pre-incubation at 4 times IC50, 10-fold dilution.

Assay [4] concerns the target T3, Cdc25c (Homo sapiens, UniProt P30307).
T3 sequence (P30307 321-428 limits assumed): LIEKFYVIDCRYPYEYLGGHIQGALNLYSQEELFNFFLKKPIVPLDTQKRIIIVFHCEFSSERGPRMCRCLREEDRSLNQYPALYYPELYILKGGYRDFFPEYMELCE
Description: OMFP phosphatase assay, Cdc25c.

Sequence of PTP-β (P23467 1703-1963 limits assumed): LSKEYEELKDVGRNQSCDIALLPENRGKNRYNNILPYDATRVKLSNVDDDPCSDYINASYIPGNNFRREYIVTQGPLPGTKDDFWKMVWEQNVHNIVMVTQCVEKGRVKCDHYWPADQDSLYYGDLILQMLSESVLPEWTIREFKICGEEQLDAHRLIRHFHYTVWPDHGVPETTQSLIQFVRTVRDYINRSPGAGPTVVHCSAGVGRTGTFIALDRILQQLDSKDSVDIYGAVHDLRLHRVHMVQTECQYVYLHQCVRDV

In the case of `[O]=[Sb]([OH])([OH])[c]1ccccc1` [Compound 13744], the “Inhibition of PTP-β” value in assay [1] is “does not show any inhibitory effect; also recorded: No inhibition”.

As to `O=C(O)/C=C/c1ccc[c]([Sb](=[O])([OH])[OH])c1` [Compound 13778, (E)-3-(3-stibonophenyl)acrylic acid], the “Mode of inhibition of Cdc25a” value in assay [2] (OMFP) is “partial mixed-type mode of inhibition”. The “Reversibility of inhibition of Cdc25a” value in assay [2] was “reversible”. For the same compound, in assay [3] (OMFP), the “Mode of inhibition of Cdc25b” value was “partial mixed-type mode of inhibition”. For the same compound, the “Reversibility of inhibition of Cdc25b” value in assay [3] is listed as “reversible”. Also, the “Effect on activity of Cdc25c” value in assay [4] (10 µM compound) was “not substantially affected”. The “Inhibition of PTP-β” value in assay [1] is listed as “almost completely inhibiting phosphatase activity”.

For `O=C(O)CCc1ccc[c]([Sb](=[O])([OH])[OH])c1` [Compound P6949, 3-(3-stibonophenyl)propanoic acid], in assay [2] (OMFP), the “Mode of inhibition of Cdc25a” value is given as “partial mixed-type mode of inhibition” and the “Potency relative to 13778 for Cdc25a (fold lower)” value is recorded as ~ 30 fold. Further, the “Reversibility of inhibition of Cdc25a” value in assay [2] is listed as “reversible”. Moreover, in assay [3] (OMFP), the “Mode of inhibition of Cdc25b” value is on record as “partial mixed-type mode of inhibition” and the “Potency relative to 13778 for Cdc25b (fold lower)” value was ~ 10 fold. The “Reversibility of inhibition of Cdc25b” value in assay [3] is listed as “reversible”. In assay [4] (at the concentrations tested), the “Effect on activity of Cdc25c” value is “not affected”. The “Inhibition of PTP-β” value in assay [1] was “almost completely inhibiting phosphatase activity”.

Values taken from PMC3389297 (Bioorganic & medicinal chemistry, 2012).
